In ChEMBL document CHEMBL5370611, “Discovery of 4,5,6,7-Tetrahydropyrazolo[1.5-a]pyrizine Derivatives as Core Protein Allosteric Modulators (CpAMs) for the Inhibition of Hepatitis B Virus” (J Med Chem, 2023):
Values after ≈ are worked out from the molar mass of the structure shown. Active and inactive are the calls of the source. No cut-off for these calls is given here.

Key:
[1] = Resistance index, ratio of EC50 for wild type Hepatitis B virus to EC50 for Hepatitis B virus harboring A181V transfected in human HepG2 cells measured after 6 days by qPCR analysis; type: functional; details: time 6 day
[2] = Resistance index, ratio of EC50 for wild type Hepatitis B virus to EC50 for Hepatitis B virus harboring A181T transfected in human HepG2 cells measured after 6 days by qPCR analysis; type: functional; details: time 6 day
[3] = Resistance index, ratio of EC50 for wild type Hepatitis B virus to EC50 for Hepatitis B virus harboring N236T transfected in human HepG2 cells measured after 6 days by qPCR analysis; type: functional; details: time 6 day
[4] = Selectivity index, ratio of CC50 for human HepDE19 cells assessed as reduction in cell viability to EC50 for HBV infected in human HepG2.2.15 cells assessed as reduction in HBV DNA replication; type: toxicity, cell-based; details: HBV-infected HepG2.2.15 cells (EC50)
[5] = Metabolic stability in mouse liver microsomes assessed as clearance at 1 uM preincubated for 10 mins and measured upto 30 mins in presence of NADPH generating system by LC-MS/MS analysis; type: ADME, Microsome; details: time < 40 min
[6] = Lyophilization solubility of the compound in phosphate buffer at pH 6.5 incubated for 1 hr under stirring condition and 2 hrs under shaking condition by HPLC-UV analysis; type: physicochemical
[7] = Metabolic stability in human liver microsomes assessed as clearance at 1 uM preincubated for 10 mins and measured upto 30 mins in presence of NADPH generating system by LC-MS/MS analysis; type: ADME, Microsome; details: time < 40 min
Hepatitis B virus [8] = experiment: Antiviral activity against HBV infected in human HepG2.2.15 cells assessed as reduction in HBV DNA replication measured after 5 days by qPCR analysis; type: functional, organism-based; details: HepG2.2.15, 120 h
[9] = Cytotoxicity against human HepDE19 cells assessed as reduction in cell viability measured after 5 days by CCK-8 method; type: functional; details: HepDE19, 120 h, time 5 day
Hepatitis B virus [10] = experiment: Inhibition of HBV Cp150 dimer assembly assessed as formation of large abnormal particles at 20 uM incubated for 2 hrs by transmission electron microscopy
[11] = Resistance index, ratio of EC50 for wild type Hepatitis B virus to EC50 for Hepatitis B virus harboring […] transfected in human HepG2 cells measured after 6 days by qPCR analysis; type: functional; details: time 6 day
Hepatitis B virus [12] = experiment: Inhibition of HBV replication transfected in human HepG2.2.15 cells assessed as assessed as induction of capsid degradation in cell lysate at upto 10 uM incubated for 5 days by SDS-PAGE analysis; type: functional, organism-based; details: time 5.0 day
Hepatitis B virus [13] = experiment: Inhibition of HBV replication transfected in human HepG2.2.15 cells assessed as assessed as induction of total core protein degradation in cell lysate at upto 10 uM incubated for 5 days by SDS-PAGE analysis; type: functional, organism-based; details: time 5.0 day
[14] = Resistance index, ratio of EC50 for wild type Hepatitis B virus to EC50 for Hepatitis B virus harboring L180M/M204V transfected in human HepG2 cells measured after 6 days by qPCR analysis; type: functional; details: time 6 day
[15] = Resistance index, ratio of EC50 for wild type Hepatitis B virus to EC50 for Hepatitis B virus harboring A181V/N236T transfected in human HepG2 cells measured after 6 days by qPCR analysis; type: functional; details: time 6 day
[16] = Resistance index, ratio of EC50 for wild type Hepatitis B virus to EC50 for Hepatitis B virus harboring L180M/M204 V/T184G/[…] transfected in human HepG2 cells measured after 6 days by qPCR analysis; type: functional; details: time 6 day
[17] = Resistance index, ratio of EC50 for wild type Hepatitis B virus to EC50 for Hepatitis B virus harboring L180M/M204 V/A194T transfected in human HepG2 cells measured after 6 days by qPCR analysis; type: functional; details: time 6 day
[18] = Resistance index, ratio of EC50 for wild type Hepatitis B virus to EC50 for Hepatitis B virus harboring L180M/M204 V/S202G transfected in human HepG2 cells measured after 6 days by qPCR analysis; type: functional; details: time 6 day
Hepatitis B virus [19] = experiment: Inhibition of HBV replication transfected in human HepG2.2.15 cells assessed as inhibition of encapsidated DNA formation in cell lysate incubated for 5 days by SDS-PAGE analysis; type: functional, organism-based; details: dose <= 10.0 µM, time 5.0 day
[20] = Resistance index, ratio of EC50 for wild type Hepatitis B virus to EC50 for Hepatitis B virus harboring A181T/N236T transfected in human HepG2 cells measured after 6 days by qPCR analysis; type: functional; details: time 6 day
[21] = Resistance index, ratio of EC50 for wild type Hepatitis B virus to EC50 for Hepatitis B virus harboring L180M/M204 V/M250 V/[…] transfected in human HepG2 cells measured after 6 days by qPCR analysis; type: functional; details: time 6 day
[22] = Resistance index, ratio of EC50 for wild type Hepatitis B virus to EC50 for Hepatitis B virus harboring M204 V transfected in human HepG2 cells measured after 6 days by qPCR analysis; type: functional; details: time 6 day

CLhep predicted at 1 µM [5] | solubility at 3 h [6] | CLhep predicted at 1 µM [7] | EC50 (Hepatitis B virus [8]) | SMILES | selectivity ratio [4] | CC50 [9] | further results
– | – | – | – | Nc1ncnc2c1ncn2CCOCP(=O)(O)O [ADEFOVIR] | – | – | Ratio EC50 [1]: 1.6; Ratio EC50 [2]: 2.2; Ratio EC50 [3]: 2.5
65 mL/min/kg | 160 µg/mL (≈ 423 µM) | 7.8 mL/min/kg | 0.052 µM | O=C(Nc1ccc(F)c(Cl)c1)N1CCn2ncc(N3CCCC3=O)c2C1 | > 1930 | > 100 µM | –
60 mL/min/kg | – | 15 mL/min/kg | 0.07 µM | O=C(Nc1ccc(Cl)c(F)c1)N1CCn2ncc(-c3ccc(F)cc3)c2C1 | 443 | 31 µM | Activity (Hepatitis B virus [10]): inactive
– | – | – | – | Cc1cn([C@@H]2C[C@@H](O)[C@H](CO)O2)c(=O)[nH]c1=O [TELBIVUDINE] | – | – | Ratio EC50 [11]: >165
87 mL/min/kg | 32 µg/mL (≈ 94.9 µM) | 14 mL/min/kg | 0.411 µM | O=C(Nc1ccccc1)N1CCn2nnc(-c3ccc(F)cc3)c2C1 | > 243 | > 100 µM | –
80 mL/min/kg | < 1 µg/mL | 16 mL/min/kg | 0.11 µM | O=C(Nc1ccc(F)c(Cl)c1)N1CCn2ncc(-c3ccc(F)cn3)c2C1 | 320 | 35 µM | –
79 mL/min/kg | 134 µg/mL (≈ 368 µM) | 16 mL/min/kg | 0.22 µM | O=C(Nc1ccc(F)c(Cl)c1)N1CCn2ncc(N3CCCC3)c2C1 | 440 | 97 µM | –
73 mL/min/kg | 525 µg/mL (≈ 1290 µM) | 15 mL/min/kg | 0.052 µM | C[C@H]1[C@H](C)n2ncc(N3CCCC3=O)c2CN1C(=O)Nc1cc(F)c(F)c(F)c1 | > 1920 | > 100 µM | –
49 mL/min/kg | 98 µg/mL (≈ 290 µM) | 6 mL/min/kg | 3.03 µM | O=C(Nc1cccnc1)N1CCn2ncc(-c3ccc(F)cc3)c2C1 | > 33 | > 100 µM | –
– | – | – | – | COC(=O)C1=C(CN2CC(F)(F)C[C@H]2C(=O)O)NC(c2nccs2)=N[C@H]1c1ccc(F)cc1Cl | – | – | inhibition (Hepatitis B virus [12]): Active; inhibition (Hepatitis B virus [13]): Active; Activity (Hepatitis B virus [10]): Active; inhibition (Hepatitis B virus [19]): Dose-Dependent Effect
74 mL/min/kg | < 1 µg/mL | 19 mL/min/kg | 0.033 µM | O=C(Nc1ccc(F)c(Cl)c1)N1CCn2ncc(-c3ccccc3F)c2C1 | 476 | 16 µM | –
20 mL/min/kg | 158 µg/mL (≈ 401 µM) | 6.2 mL/min/kg | 0.155 µM | O=C(Nc1ccc(F)c(Cl)c1)N1CCn2ncc(N3CCOCC3=O)c2C1 | > 645 | > 100 µM | –
63 mL/min/kg | 5 µg/mL (≈ 14.9 µM) | 21 mL/min/kg | 0.377 µM | O=C(Nc1ccccc1)N1CCc2[nH]nc(-c3ccc(F)cc3)c2C1 | 156 | 59 µM | –
71 mL/min/kg | < 1 µg/mL | 18 mL/min/kg | 0.308 µM | O=C(Nc1cccc(Cl)c1)N1CCn2ncc(-c3ccc(F)cc3)c2C1 | 284 | 87 µM | –
– | – | – | – | Nc1ccn([C@@H]2CS[C@H](CO)O2)c(=O)n1 [LAMIVUDINE] | – | – | Ratio EC50 [14]: >225; Ratio EC50 [15]: 5.8; Ratio EC50 [20]: 29; Ratio EC50 [22]: 19
69 mL/min/kg | 6 µg/mL (≈ 15.4 µM) | 14 mL/min/kg | 0.128 µM | O=C(Nc1ccc(F)c(Cl)c1)N1CCn2ncc(-c3ncc(F)cn3)c2C1 | 250 | 32 µM | –
76 mL/min/kg | < 1 µg/mL | 14 mL/min/kg | 0.286 µM | O=C(Nc1ccccc1)N1CCn2cnc(-c3ccc(F)cc3)c2C1 | > 349 | > 100 µM | –
29 mL/min/kg | 415 µg/mL (≈ 1010 µM) | 6.2 mL/min/kg | 0.063 µM | C[C@H]1Cn2ncc(N3CCOCC3=O)c2CN1C(=O)Nc1cc(F)c(F)c(F)c1 | > 1590 | > 100 µM | –
66 mL/min/kg | < 1 µg/mL | 17 mL/min/kg | 0.036 µM | O=C(Nc1ccc(F)c(Cl)c1)N1CCn2ncc(-c3ccc(F)cc3F)c2C1 | 1180 | 42 µM | –
76 mL/min/kg | 3 µg/mL (≈ 8.92 µM) | 17 mL/min/kg | 0.323 µM | O=C(Nc1ccccc1)N1CCn2ncc(-c3ccc(F)cc3)c2C1 | 204 | 66 µM | –
76 mL/min/kg | < 1 µg/mL | 19 mL/min/kg | 2.3 µM | O=C(Nc1ccc(F)c(Cl)c1)N1CCn2ncc(NC3CCCC3)c2C1 | > 43 | > 100 µM | –
51 mL/min/kg | 150 µg/mL (≈ 395 µM) | 6.2 mL/min/kg | 0.252 µM | O=C(Nc1cc(F)c(F)c(F)c1)N1CCn2ncc(N3CCCC3=O)c2C1 | 101 | 26 µM | –
– | – | – | – | C=C1[C@H](CO)[C@@H](O)C[C@@H]1n1cnc2c(=O)[nH]c(N)nc21 [ENTECAVIR ANHYDROUS] | – | – | Ratio EC50 [16]: 607.1; Ratio EC50 [18]: 62.8; Ratio EC50 [21]: 712.4
45 mL/min/kg | 515 µg/mL (≈ 1260 µM) | 8.7 mL/min/kg | 0.04 µM | C[C@@H]1[C@H](C)N(C(=O)Nc2cc(F)c(F)c(F)c2)Cc2c(N3CCCC3=O)cnn21 | > 2500 | > 100 µM | –
– | – | – | – | C[C@H](Cn1cnc2c(N)ncnc21)OCP(=O)(O)O [TENOFOVIR ANHYDROUS] | – | – | Ratio EC50 [1]: 1.5; Ratio EC50 [15]: 3.8; Ratio EC50 [2]: 0.9; Ratio EC50 [17]: 4.3; Ratio EC50 [3]: 3.3; Ratio EC50 [20]: 3.3
34 mL/min/kg | 170 µg/mL (≈ 448 µM) | 7.2 mL/min/kg | 0.266 µM | O=C(Nc1ccc(F)c(Cl)c1)N1CCn2ncc(N3CCOCC3)c2C1 | > 376 | > 100 µM | –

SMILES | CLhep predicted at 1 µM [5] | solubility at 3 h [6] | CLhep predicted at 1 µM [7] | EC50 (Hepatitis B virus [8]) | selectivity ratio [4] | CC50 [9] | further results
C[C@H]1Cn2ncc(N3CCCC3=O)c2CN1C(=O)Nc1ccc(F)c(Cl)c1 | 50 mL/min/kg | 330 µg/mL (≈ 842 µM) | 11 mL/min/kg | 0.036 µM | 2600 | 94 µM | Ratio EC50 [1]: 2.1; inhibition (Hepatitis B virus [12]): inactive; inhibition (Hepatitis B virus [13]): inactive; Ratio EC50 [14]: 2.6; Ratio EC50 [15]: 2.2; Ratio EC50 [16]: 2.9; Ratio EC50 [2]: 1.6; Ratio EC50 [17]: 2.2; Ratio EC50 [3]: 1.4; Ratio EC50 [18]: 1.9; inhibition (Hepatitis B virus [19]): Dose-Dependent Effect; Ratio EC50 [20]: 2.2; Ratio EC50 [11]: 1.9; Ratio EC50 [21]: 2.4; Ratio EC50 [22]: 1.8
